Experimental data: US6362369B1, “Phthalic acid diamide derivatives fluorine-containing aniline compounds as starting material, agricultural and horticultural insecticides, and a method for application of the insecticides” (Nihon Nohyaku Co., Ltd., priority 1997, dated 2002)

Experiments:
Format in all cases: in vivo
[1] = test system: common cutworm (Spodoptera Litura); assay: Insecticidal effect on common cutworm (Test Example 2); conditions: 500 ppm, 25° C.; for Insecticidal effect, Test Example 2: cabbage leaf immersed; for Insecticidal effect, Test Example 2 / Insecticidal effect on common cutworm (Test Example 2), judged grade: eight days after inoculation; for Insecticidal effect on common cutworm (Test Example 2), judged grade / Insecticidal effect (Test Example 2), judged from mortality: cabbage leaf dip; for Insecticidal effect on common cutworm (Test Example 2), judged grade: second-instar larvae; for Insecticidal effect (Test Example 2), judged from mortality: 8 days after inoculation
How it was run: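 Second-instar larvae placed in 9 cm Petri dishes with air-dried treated material, held at 25 °C. Dead and live insects counted 8 days after inoculation; mortality calculated and scored against a set criterion. Triplicate groups of 10 insects.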

[2] = test system: rice leafroller (Cnaphalocrocis medinalis); assay: Insecticidal effect on rice leafroller (Test Example 3); conditions: 500 ppm, 25° C., humidity 70%; for Insecticidal effect, Test Example 3: rice lamina immersed; for Insecticidal effect, Test Example 3 / Insecticidal effect on rice leafroller (Test Example 3), judged grade: four days after inoculation; for Insecticidal effect on rice leafroller (Test Example 3), judged grade / Insecticidal effect (Test Example 3), judged from mortality: rice lamina dip; for Insecticidal effect on rice leafroller (Test Example 3), judged grade: third-instar larvae; for Insecticidal effect (Test Example 3), judged from mortality: 4 days after inoculation
How it was run: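 Groups of 10 third-instar larvae, in triplicate, are placed on air-dried lamina resting on wet filter paper. Incubation runs four days at 25° C with 70% humidity before survivors and dead are tallied.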

[3] = test system: diamondback moth (Plutella xylostella); assay: Insecticidal effect on diamondback moth (Test Example 1); conditions: for Insecticidal effect, Test Example 1 / Insecticidal effect (Test Example 1), judged from mortality: diamondback moth; for Insecticidal effect on diamondback moth (Test Example 1), judged grade: mortality judged according to the criterion shown in Test Example 1; for Insecticidal effect (Test Example 1), judged from mortality: judged by the criterion of Test Example 1
How it was run: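 Chinese cabbage seedlings carrying eggs laid by released adult moths were immersed in treatment, air-dried and held at 25° C. Hatched insects were counted six days after immersion, and mortality was calculated and scored against a fixed criterion. Three replicate groups of 10 insects were used.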

[4] = second-instar larvae of common cutworm
[5] = third-instar larvae of rice leafroller
[6] = judged by the mortality criterion of Test Example 1
[7] = common cutworm second-instar larvae
[8] = rice leafroller third-instar larvae
[9] = mortality judged by criterion of Test Example 1

**Q.** Which results are given for `CC(C)NC(=O)c1c(Cl)cccc1C(=O)Nc1ccc2c(c1)nc(C(F)(F)F)n2C` [compound 167]?
**A.** Insecticidal effect, Test Example 2 [1, 4]: A (100); Insecticidal effect, Test Example 3 [2, 5]: A (100); Insecticidal effect, Test Example 1 [3, 6]: A (100)

**Q.** `Cc1cc(OC(F)(F)C(F)Cl)ccc1NC(=O)c1cccc(Br)c1C(=O)NC(C)C` (stereo not drawn) [compound 292] was tested. Which “Insecticidal effect, Test Example 2” value [1, 4] did it give?
**A.** A (100)

**Q.** And the “Insecticidal effect, Test Example 3” value [2, 5]?
**A.** A (100)

**Q.** What about the “Insecticidal effect, Test Example 1” value [3, 6] of the same compound?
**A.** A (100)

**Q.** How did the “Insecticidal effect on common cutworm (Test Example 2), judged grade” value [1] turn out when `Cc1cc(C(F)(F)C(F)(F)C(F)(F)C(F)(F)F)ccc1NC(=O)c1cccc([N+](=O)[O-])c1C(=O)NC(C)C` [compound 686] was run?
**A.** A (100)

**Q.** What about the “Insecticidal effect on rice leafroller (Test Example 3), judged grade” value [2] of the same compound?
**A.** A (100)

**Q.** What about the “Insecticidal effect on diamondback moth (Test Example 1), judged grade” value [3] of the same compound?
**A.** A (100)

**Q.** With `Cc1cc(OC(F)(F)C(F)(F)Br)ccc1NC(=O)c1cccc(F)c1C(=O)NC(C)C` [compound 503] as the compound, how does the “Insecticidal effect on common cutworm (Test Example 2), judged grade” value [1] read?
**A.** B (99-90)

**Q.** And the “Insecticidal effect on rice leafroller (Test Example 3), judged grade” value [2]?
**A.** A (100)

**Q.** What about the “Insecticidal effect on diamondback moth (Test Example 1), judged grade” value [3] of the same compound?
**A.** A (100)

**Q.** For `Cc1cc(C(F)(F)C(F)(F)C(F)(F)F)ccc1NC(=O)c1cccc(I)c1C(=O)NC(C)C` [compound 373], which “Insecticidal effect, Test Example 2” value [1, 4] is on record?
**A.** A (100)

**Q.** What about the “Insecticidal effect, Test Example 3” value [2, 5] of the same compound?
**A.** A (100)

**Q.** What about the “Insecticidal effect, Test Example 1” value [3, 6] of the same compound?
**A.** A (100)

**Q.** For `Cc1cc(C(F)(F)C(F)(F)F)ccc1NC(=O)c1cccc(I)c1C(=O)NCC(C)C` [compound 1005], which “Insecticidal effect, Test Example 2” value [1, 7] is on record?
**A.** A (100)

**Q.** And the “Insecticidal effect, Test Example 3” value [2, 8]?
**A.** A (100)

**Q.** What about the “Insecticidal effect, Test Example 1” value [3, 9] of the same compound?
**A.** A (100)

**Q.** Which results are given for `CC(C)(C)NC(=O)c1c(F)cccc1C(=O)Nc1ccc(C(F)(F)C(F)(F)F)cc1F` [compound 1507]?
**A.** Insecticidal effect (Test Example 2), judged from mortality [1, 4]: A (100); Insecticidal effect (Test Example 3), judged from mortality [2, 5]: A (100); Insecticidal effect (Test Example 1), judged from mortality [3]: A (100)

**Q.** Which results are given for `CCN(CC)C(=O)c1c(Cl)cccc1C(=O)Nc1ccc(C(F)(F)F)cc1` [compound 1545]?
**A.** Insecticidal effect (Test Example 2), judged from mortality [1, 4]: D (79-50); Insecticidal effect (Test Example 3), judged from mortality [2, 5]: A (100); Insecticidal effect (Test Example 1), judged from mortality [3]: A (100)

**Q.** With `CCC(C)(C)NC(=O)c1c(F)cccc1C(=O)Nc1ccc(C(F)(F)C(F)(F)F)cc1C` [compound 1152] as the compound, how does the “Insecticidal effect, Test Example 2” value [1, 7] read?
**A.** A (100)

**Q.** And the “Insecticidal effect, Test Example 3” value [2, 8]?
**A.** A (100)

**Q.** What about the “Insecticidal effect, Test Example 1” value [3, 9] of the same compound?
**A.** A (100)

**Q.** `C#CC(C)(C)NC(=O)c1c(I)cccc1C(=O)Nc1ccc(OC(F)(F)F)cc1C` [compound 1634] was tested. Which “Insecticidal effect (Test Example 2), judged from mortality” value [1, 4] did it give?
**A.** A (100)

**Q.** And the “Insecticidal effect (Test Example 3), judged from mortality” value [2, 5]?
**A.** A (100)

**Q.** And the “Insecticidal effect (Test Example 1), judged from mortality” value [3]?
**A.** A (100)

**Q.** How did the “Insecticidal effect, Test Example 2” value [1, 4] turn out when `Cc1c(Cl)cccc1NC(=O)c1cccc(Cl)c1C(=O)NC(C)C` [compound 118] was run?
**A.** A (100)

**Q.** And the “Insecticidal effect, Test Example 3” value [2, 5]?
**A.** A (100)

**Q.** What about the “Insecticidal effect, Test Example 1” value [3, 6] of the same compound?
**A.** A (100)

**Q.** Which “Insecticidal effect, Test Example 2” value [1, 7] does the source give for `CCN(CC)C(=O)c1c(I)cccc1C(=O)Nc1ccc2c(c1)OC(F)C(F)(F)O2` (stereo not drawn) [compound 1151] here?
**A.** A (100)

**Q.** And the “Insecticidal effect, Test Example 3” value [2, 8]?
**A.** A (100)

**Q.** What about the “Insecticidal effect, Test Example 1” value [3, 9] of the same compound?
**A.** A (100)

**Q.** With `CC(C)NC(=O)c1c(Cl)cccc1C(=O)Nc1cccc([S+]([O-])C(F)(F)F)c1` (stereo not drawn) [compound 100] as the compound, how does the “Insecticidal effect, Test Example 2” value [1, 4] read?
**A.** A (100)

**Q.** What about the “Insecticidal effect, Test Example 3” value [2, 5] of the same compound?
**A.** A (100)

**Q.** What about the “Insecticidal effect, Test Example 1” value [3, 6] of the same compound?
**A.** A (100)

**Q.** How did the “Insecticidal effect (Test Example 2), judged from mortality” value [1, 4] turn out when `CCN(CC)C(=O)c1c(F)cccc1C(=O)Nc1ccc(C(F)(F)C(F)(F)F)cc1C` [compound 1525] was run?
**A.** A (100)

**Q.** And the “Insecticidal effect (Test Example 3), judged from mortality” value [2, 5]?
**A.** A (100)

**Q.** And the “Insecticidal effect (Test Example 1), judged from mortality” value [3]?
**A.** A (100)

**Q.** With `Cc1cc(C(F)(F)F)ccc1NC(=O)c1c(I)cccc1C(=O)NC(C)C` [compound 436] as the compound, how does the “Insecticidal effect, Test Example 2” value [1, 4] read?
**A.** B (99-90)

**Q.** What about the “Insecticidal effect, Test Example 3” value [2, 5] of the same compound?
**A.** A (100)

**Q.** And the “Insecticidal effect, Test Example 1” value [3, 6]?
**A.** A (100)

**Q.** `CC(C)NC(=O)c1ccccc1C(=O)Nc1ccc(OC(F)(F)F)cc1` [compound 29] was tested. Which “Insecticidal effect, Test Example 2” value [1, 4] did it give?
**A.** B (99-90)

**Q.** And the “Insecticidal effect, Test Example 3” value [2, 5]?
**A.** A (100)

**Q.** And the “Insecticidal effect, Test Example 1” value [3, 6]?
**A.** A (100)

**Q.** How did the “Insecticidal effect (Test Example 2), judged from mortality” value [1, 4] turn out when `CCC(C)NC(=O)c1c(I)cccc1C(=O)Nc1ccc(C(F)(F)C(F)(F)F)cc1F` (stereo not drawn) [compound 1472] was run?
**A.** A (100)

**Q.** What about the “Insecticidal effect (Test Example 3), judged from mortality” value [2, 5] of the same compound?
**A.** A (100)

**Q.** What about the “Insecticidal effect (Test Example 1), judged from mortality” value [3] of the same compound?
**A.** A (100)

**Q.** `Cc1cc(C(F)(F)C(F)(F)F)ccc1NC(=O)c1cccc(Cl)c1C(=O)NCC(C)O` (stereo not drawn) [compound 1315] was tested. Which “Insecticidal effect, Test Example 2” value [1, 7] did it give?
**A.** A (100)

**Q.** What about the “Insecticidal effect, Test Example 3” value [2, 8] of the same compound?
**A.** A (100)

**Q.** What about the “Insecticidal effect, Test Example 1” value [3, 9] of the same compound?
**A.** A (100)
